Test systems include OVCAR-4; SK-MEL-28; OVCAR-8; UACC-257; HOP-92; MDA-MB-435; HL-60; SK-MEL-5; NCI/ADR-RES; U-251; IGROV-1; SR; OVCAR-3; RXF 393; M14; SF-268; UO-31; SNB-75; Malme-3M; OVCAR-5.
Assay in all cases: DTP human tumour cell line panel, 48 h

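Dose response: 5 concentrations. Exposure: 48 h. Format: 96-well plates. Endpoint: linear interpolation; highest concentration if not reached. GI50 is the concentration that inhibits growth by half.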 The source made the active and inactive calls. Cut-off read from the data, not from the text of the source: active = GI50 up to about 1.1 µM and inactive = higher.

Take `O=C1/C(=N\NC(=S)Nc2ccc(Cl)cc2)c2cc([N+](=O)[O-])ccc2N1CN1CCOCC1`: the GI50 is 10 µM (inactive) in the assay with OVCAR-4; 10.9 µM (inactive) in the assay with SK-MEL-28; 5.6 µM (inactive) in the assay on OVCAR-8; 13.2 µM (inactive) with UACC-257; 8.47 µM (inactive) in the assay on HOP-92; 6.38 µM (inactive) with MDA-MB-435. Further, the GI50 in the assay on HL-60 was 0.502 µM (active); with SK-MEL-5, 4 µM (inactive); with NCI/ADR-RES, 2.2 µM (inactive); with U-251 it was 7.18 µM (inactive); with IGROV-1 it was 4.19 µM (inactive); in the assay on SR, 1.99 µM (inactive). The GI50 with OVCAR-3 was 3.99 µM (inactive); with RXF 393 it was 7.19 µM (inactive); in the assay on M14, 10.1 µM (inactive); with SF-268, 4.39 µM (inactive); with UO-31, 3.78 µM (inactive); in the assay with SNB-75 it was 12.8 µM (inactive). For the same molecule, the GI50 in the assay with Malme-3M is 6.17 µM (inactive).
On to `c1ccc(CSc2ccccc2CN2CCN(Cc3ccccc3SCc3ccccc3)CCN(Cc3ccccc3SCc3ccccc3)CC2)cc1`, for which the GI50 was 1.45 µM (inactive) in the assay on OVCAR-4; 1.88 µM (inactive) in the assay with SK-MEL-28; 1.22 µM (inactive) with OVCAR-8; 1.64 µM (inactive) in the assay with OVCAR-5; 1.39 µM (inactive) with UACC-257; 0.359 µM (active) in the assay on HOP-92. Besides, the GI50 is 1.31 µM (inactive) with MDA-MB-435; 1.5 µM (inactive) in the assay on HL-60; 1.57 µM (inactive) in the assay on SK-MEL-5; 2.44 µM (inactive) in the assay with NCI/ADR-RES; 0.869 µM (active) in the assay with U-251; 2.16 µM (inactive) in the assay on SR. Besides, the GI50 in the assay on OVCAR-3 was 0.466 µM (active); in the assay with RXF 393 it was 1.77 µM (inactive); in the assay on M14, 1.55 µM (inactive); with SF-268, 2.94 µM (inactive); with UO-31, 2.59 µM (inactive); with SNB-75, 1.6 µM (inactive). For the same molecule, the GI50 in the assay with Malme-3M was 1.71 µM (inactive).
For `CC12CP(=O)(c3ccccc3)CC1c1ccccc1C2c1ccccc1` (centres undefined), the GI50 with SK-MEL-28 is 29.4 µM (inactive); in the assay with OVCAR-8, 15.2 µM (inactive); with OVCAR-5, 30.9 µM (inactive); with HOP-92, 22.1 µM (inactive); in the assay on MDA-MB-435, 15.2 µM (inactive); in the assay on HL-60, 7.52 µM (inactive). Besides, the GI50 in the assay on SK-MEL-5 was 19.1 µM (inactive); in the assay with NCI/ADR-RES it was 14.2 µM (inactive); in the assay on U-251, 16.5 µM (inactive); in the assay on IGROV-1, 3.44 µM (inactive); in the assay with SR, 14.3 µM (inactive); with OVCAR-3, 16.7 µM (inactive). Moreover, the GI50 is 20.8 µM (inactive) in the assay with RXF 393; 17.5 µM (inactive) with M14; 26.1 µM (inactive) in the assay with SF-268; 16.7 µM (inactive) in the assay on UO-31; 15.6 µM (inactive) in the assay with Malme-3M.
Take `Cc1ccc(-c2nc3n(c2/C=N\N=C(N)N)CCS3)cc1`: the GI50 was 16.6 µM (inactive) in the assay on OVCAR-4; 15.7 µM (inactive) in the assay on SK-MEL-28; 15.6 µM (inactive) in the assay with OVCAR-8; 16.3 µM (inactive) in the assay on OVCAR-5; 16.6 µM (inactive) in the assay on UACC-257; 19.4 µM (inactive) in the assay on HOP-92. The GI50 in the assay with MDA-MB-435 is 15.5 µM (inactive); in the assay on HL-60 it was 33.3 µM (inactive); with SK-MEL-5 it was 14.2 µM (inactive); with NCI/ADR-RES, 29.9 µM (inactive); with U-251 it was 14.9 µM (inactive); in the assay with IGROV-1 it was 15 µM (inactive). Further, the GI50 was 59 µM (inactive) in the assay with SR; 15.8 µM (inactive) with RXF 393; 14.9 µM (inactive) in the assay on SF-268; 16.7 µM (inactive) in the assay on UO-31; 10.9 µM (inactive) in the assay on SNB-75; 17.3 µM (inactive) with Malme-3M.
Consider `CCCc1c(O)c(=O)c2c(OC)cc(OC)c3c4c(OC)cc(OC)c5c(=O)c(O)c(CCC)c(c1c23)c54`, for which the GI50 in the assay with OVCAR-4 is 2.56 µM (inactive); in the assay on SK-MEL-28, 3.13 µM (inactive); with OVCAR-8, 0.513 µM (active); in the assay with OVCAR-5 it was 2.13 µM (inactive); in the assay with UACC-257 it was 1.15 µM (inactive); in the assay with HOP-92, 0.681 µM (active). Further, the GI50 with MDA-MB-435 is 0.371 µM (active); in the assay with HL-60, 1.74 µM (inactive); in the assay on SK-MEL-5 it was 0.533 µM (active); in the assay with NCI/ADR-RES it was 0.9 µM (active); in the assay with U-251 it was 0.415 µM (active); with IGROV-1 it was 0.337 µM (active). The GI50 is 0.141 µM (active) with SR; 1.92 µM (inactive) in the assay with OVCAR-3; 2.79 µM (inactive) with RXF 393; 0.755 µM (active) in the assay with M14; 0.714 µM (active) in the assay with SF-268; 0.404 µM (active) in the assay with UO-31. Besides, the GI50 with SNB-75 is 0.183 µM (active).
Turning to `O=C1C(=C2SC(c3ccccc3)(c3ccccc3)c3ccccc32)C(=O)c2ccccc21`, the GI50 was > 100 µM (inactive) with OVCAR-4; > 100 µM (inactive) in the assay with SK-MEL-28; > 100 µM (inactive) in the assay on OVCAR-8; > 100 µM (inactive) in the assay on OVCAR-5; 72.4 µM (inactive) with UACC-257; > 100 µM (inactive) with HOP-92. For the same molecule, the GI50 is > 100 µM (inactive) in the assay on MDA-MB-435; > 100 µM (inactive) in the assay with SK-MEL-5; > 100 µM (inactive) in the assay with NCI/ADR-RES; > 100 µM (inactive) in the assay on U-251; > 100 µM (inactive) with IGROV-1; 65.2 µM (inactive) with SR. Further, the GI50 with OVCAR-3, in the assay on RXF 393, in the assay with M14, in the assay on SF-268, with UO-31 and with SNB-75 was > 100 µM (inactive) throughout. Also, in the assay on Malme-3M, the GI50 was > 100 µM (inactive).
In the case of `CN(C)c1ccc(C(=C2C=CC(=[N+](C)C)C=C2)c2c(O)c(S(=O)(=O)[O-])cc3cc(S(=O)(=O)O)ccc23)cc1`, the GI50 with OVCAR-4, in the assay on SK-MEL-28, with OVCAR-8, in the assay with OVCAR-5, in the assay on UACC-257 and with HOP-92 was > 100 µM (inactive) in each case. For the same molecule, the GI50 with MDA-MB-435, with SK-MEL-5, with NCI/ADR-RES, with U-251, in the assay on IGROV-1 and with SR was > 100 µM (inactive) each time. For the same molecule, the GI50 in the assay with OVCAR-3, in the assay on RXF 393, with M14, in the assay on SF-268, in the assay on UO-31 and in the assay with SNB-75 was > 100 µM (inactive) in each case. Besides, the GI50 in the assay on Malme-3M is > 100 µM (inactive).
Consider `O=c1oc2ccccc2c2nc3ccccc3cc12`, for which the GI50 in the assay with OVCAR-4 was 22.1 µM (inactive); in the assay on SK-MEL-28, > 100 µM (inactive); in the assay on OVCAR-8, 46.7 µM (inactive); in the assay with OVCAR-5 it was > 100 µM (inactive); in the assay with UACC-257 it was 96.6 µM (inactive); in the assay with HOP-92, 31.3 µM (inactive). Besides, the GI50 is > 100 µM (inactive) with MDA-MB-435; > 100 µM (inactive) in the assay with HL-60; > 100 µM (inactive) in the assay with SK-MEL-5; 97.7 µM (inactive) with NCI/ADR-RES; 30.1 µM (inactive) with U-251; 35 µM (inactive) in the assay with IGROV-1. In addition, the GI50 in the assay on SR was > 100 µM (inactive); in the assay with RXF 393, 29.2 µM (inactive); in the assay with M14, > 100 µM (inactive); in the assay with SF-268, > 10 µM (inactive); in the assay with UO-31, 34.8 µM (inactive); in the assay with Malme-3M it was > 100 µM (inactive).
Turning to `CC(C)COC(c1ccc2c(c1)OCO2)C(C)Br` (centres undefined), the GI50 was 34.1 µM (inactive) in the assay with OVCAR-4; 48.6 µM (inactive) in the assay on SK-MEL-28; 30.2 µM (inactive) in the assay with OVCAR-8; 19.7 µM (inactive) in the assay on OVCAR-5; 23 µM (inactive) in the assay on UACC-257; 21.7 µM (inactive) in the assay with HOP-92. Besides, the GI50 in the assay on MDA-MB-435 is 21.7 µM (inactive); with SK-MEL-5, 18.7 µM (inactive); in the assay with NCI/ADR-RES, 28.4 µM (inactive); with U-251, 26.5 µM (inactive); in the assay with IGROV-1 it was 32.8 µM (inactive); in the assay on SR, 21.2 µM (inactive). The GI50 in the assay with OVCAR-3 was 16.2 µM (inactive); with RXF 393, 10.5 µM (inactive); in the assay on M14 it was 21.1 µM (inactive); in the assay on SF-268, 25.2 µM (inactive); in the assay with UO-31, 22.5 µM (inactive); in the assay on SNB-75 it was 23.1 µM (inactive). In the assay on Malme-3M, the GI50 was 17.1 µM (inactive).
`N=c1oc2ccc3ccccc3c2cc1C(N)=O`: the GI50 in the assay on OVCAR-4 is 58.6 µM (inactive); in the assay with SK-MEL-28, 44.5 µM (inactive); with OVCAR-8 it was 80.5 µM (inactive); with OVCAR-5, > 100 µM (inactive); in the assay with UACC-257, > 100 µM (inactive); in the assay with HOP-92, 53 µM (inactive). The GI50 in the assay on MDA-MB-435 was 53.6 µM (inactive); with HL-60, 39.2 µM (inactive); with SK-MEL-5, 46.1 µM (inactive); in the assay with NCI/ADR-RES, 35.5 µM (inactive); in the assay on U-251, 94.6 µM (inactive); in the assay on IGROV-1 it was 21.6 µM (inactive). The GI50 in the assay on SR is 34 µM (inactive); in the assay with OVCAR-3 it was 72.9 µM (inactive); in the assay on RXF 393, > 100 µM (inactive); with M14, 55.5 µM (inactive); with SF-268 it was 31.4 µM (inactive); in the assay with SNB-75 it was 71.9 µM (inactive).
In the case of `Nc1ccccc1/N=C/c1cc2cc([N+](=O)[O-])ccc2s1`, the GI50 in the assay on SK-MEL-28 was 22 µM (inactive); with OVCAR-8, 15 µM (inactive); with OVCAR-5, 32.7 µM (inactive); with UACC-257, 19.5 µM (inactive); with HOP-92 it was 18.9 µM (inactive); in the assay on MDA-MB-435, 31.4 µM (inactive). Further, the GI50 is 7.43 µM (inactive) in the assay with HL-60; 21.4 µM (inactive) in the assay on SK-MEL-5; 32.1 µM (inactive) in the assay with NCI/ADR-RES; 14.5 µM (inactive) with U-251; 7.59 µM (inactive) with IGROV-1; 11 µM (inactive) in the assay on SR. In addition, the GI50 with OVCAR-3 was 14 µM (inactive); in the assay on RXF 393 it was 14.5 µM (inactive); with M14, 22.4 µM (inactive); in the assay on SF-268, 14.6 µM (inactive); with UO-31, 15.7 µM (inactive); with SNB-75, 14.4 µM (inactive). Also, the GI50 in the assay on Malme-3M was 26.6 µM (inactive).

The values above are taken from ChEMBL document CHEMBL1201862, “PubChem BioAssay data set” (2004).
